What was measured:
[1] = tested on: Mel Im cells; assay: real-time cell proliferation (slope of cell index); assay type: cell-based, human; details: different concentrations of DR vs DMSO
Excerpt: (§1) FIGS. 4A through 4H depict that small Molecule KRAS Inhibition Reduces Proliferation and Induces Apoptosis in Melanoma. FIGS. 4A and 4B show proliferation (slope of cell index) of Mel Juso (FIG. 4A) and Mel Im (FIG. 4B) cells treated with DMSO and different concentrations of the KRAS small molecule inhibitor Deltarasin (DR). The cell index as dimensionless parameter for cell proliferative ability was used to determine the half maximal inhibitory concentration (IC50, small graphs) of DR. […] FIG. 4D illustrates exemplary images of different melanoma cell lines (Mel Im, Mel Juso and Mel Ei) treated with 5 μM DR or 5 μM DMSO, respectively, for 24 hours. FIGS. 4E and 4F show images of fibroblast cell lines derived from two different donors (F1, F2) and melanocytes (NHEM) treated DR (20 μM, 48 hours) or DMSO (FIG. 4E), and lactate dehydrogenase (LDH) quantification (FIG. 4F) in cell supernatants (optic density, OD) of NHEM after treatment with low dose DMSO, DR (5 μM), and DR (10 μM), respectively.

[2] = tested on: Mel Juso cells; assay: real-time cell proliferation (slope of cell index); assay type: cell-based, human; details: different concentrations of DR vs DMSO
Excerpt: as §1

[3] = tested on: melanoma cells; assay: lactate dehydrogenase (LDH) quantification in cell supernatants after low dose DR; assay type: cell-based, human; details: low dose DR (2 μM), 24 hours
[4] = tested on: melanoma cell lines (Mel Im, Mel Juso and Mel Ei); assay: toxicity (images) in melanoma cell lines; assay type: cell-based, human; details: 5 μM, 24 hours
Excerpt: as §1

[5] = tested on: Htz19 melanoma cells; assay: three-dimensional colony formation assay; assay type: cell-based, human; details: Htz19 (BRAFi primary sensitive); DR 5 μM, PLX 10 μM, alone or combined
[6] = tested on: resistant cell clones (SkMel28-R, 451Lu-R); assay: real-time cell proliferation of BRAFi-resistant melanoma cells; assay type: cell-based, human; details: in combination with 5 or 10 μM PLX
Protocol: FIGS. 6A through 6H depict that KRASi Prevents Emergence of Resistance and KRAS Expression is Regulated Dynamically in Acquired Resistance to BRAFi. […] Asterisks indicate significant differences (p<0.05) as compared to according control (0 μM PLX). FIGS. 6E and 6F are exemplary Western blot images (FIG. 6E) depicting immunostaining of AKT, pAKT, ERK, pERK, and KRAS. Densitometric values (DM) are also shown, representing relative quantifications. Resistant cell lines 451Lu-R and SkMel28-R were treated with 0, 5, or 10 μM PLX for 8 hours, and according summarized quantification of KRAS protein expression (n=3, FIG. 6F).
FIGS. 7A through 7I present KRAS Inhibition Re-sensitizes BRAF Inhibitor Resistant Cells for Inhibition of Proliferation and Induction of Apoptosis. […] show real-time cell proliferation (exemplary proliferation curve depicted in FIG. 6A, summarized slopes of proliferation curves depicted in FIG. 6B) of PLX-resistant cells treated with si-KRAS (KR) or control si-RNA (CTR), respectively, in combination with 5 or 10 μM PLX. FIGS. 7C and 7D show real-time cell proliferation (exemplary proliferation curve depicted in […], summarized slopes of proliferation curves depicted in FIG. 7D) of PLX-resistant cells treated with Deltarasin (DR) or DMSO, respectively, in combination with 5 or 10 μM PLX, according to FIGS. 7A and 7B. […]

[7] = tested on: 451Lu-R and SkMel28-R cells; assay: long-term treatment of PLX-resistant cell lines, surviving tumor cells; assay type: cell-based, human; details: 8 μM DR, 28 days
[8] = tested on: PLC cells; assay: Western blot pERK- and pAKT protein levels; assay type: cell-based, human; details: Deltarasin vs DMSO
[9] = tested on: murine hepatoma cell line Hepa129; assay: apoptosis by FACS analysis; assay type: cell-based; details: 24 hours
Protocol: FIGS. 12A through 12C depict Murine Hepatoma Cells (Hepta129) Sensitive for Small Molecule KRAS Inhibition in vitro and in vivo. […] is exemplary images (4-fold) depicting murine Hepatoma Cells (Hepa129) treated for 24 hours with Deltarasin (DR) and/or Sorafenib (SF) using different concentration of inhibitors.

[10] = tested on: murine hepatoma cell line Hepa129; assay: cell cycle FACS analysis (propidium iodide staining); assay type: cell-based; details: 5-6 hours of treatment
Excerpt: FIG. 13 depicts Deltarasin Inducing G2/M-Cell Cycle Arrest in Murine HCC Cells.

[11] = tested on: HCC cells; assay: anchorage-dependent tumor cell growth; assay type: cell-based, human; details: low doses (6 μM)
[12] = tested on: PLC; details: DR doses
[13] = tested on: pancreatic adenocarcinoma cells; details: Zimmermann et al., 2013; cited from earlier work

c1ccc(Cn2c(-c3ccc(OC[C@H](C4CCNCC4)n4c(-c5ccccc5)nc5ccccc54)cc3)nc3ccccc32)cc1 [Deltarasin, (S)-1-Benzyl-2-(4-(2-(2-phenyl-1H-benzo[d]imidazol-1-yl)-2-(piperidin-4-yl)ethoxy)phenyl)-1H-benzo[d]imidazole]
inhibition of proliferation (slope of cell index) [1]: dose-dependent inhibition of proliferation
inhibition of proliferation (slope of cell index) [2]: dose-dependent inhibition of proliferation
lactate dehydrogenase (LDH) amounts in cell supernatants [3]: sufficient to increase lactate dehydrogenase (LDH) amounts
toxicity in different melanoma cell lines [4]: marked toxicity
three-dimensional colony formation and proliferation of pre-formed colonies [5]: similarly effective as PLX
proliferation of PLX-treated, BRAFi-resistant melanoma cells [6]: dose dependent inhibition of proliferation
emergence of surviving tumor cells (cross-resistance to DR) [7]: completely abolish the emergence of surviving tumor cells
pERK- and pAKT protein levels [8]: significant reduction
apoptosis [9]: marked effects
G2/M-Cell Cycle Arrest [10]: dose-dependently induces
SubG1 fractions [10]: increased
anchorage-dependent tumor cell growth [11]: suppressed
inhibition of proliferation [12]: strong dose-dependent inhibition of proliferation
proliferation of pancreatic adenocarcinoma cells [13]: reduce proliferation

From patent US20200147058A1, “KRAS INHIBITOR FOR USE IN TREATING CANCER” (Friedrich-Alexander-Universitat Erlangen-Numberg, priority 2016, published 2020)
